Measured values from paper PMC4303209, “A novel phosphatidylinositol 3-kinase (PI3K) inhibitor directs a potent FOXO-dependent, p53-independent cell cycle arrest phenotype characterized by the differential induction of a subset of FOXO-regulated genes” (Breast Cancer Research : BCR, 2014).

Tested on: MCF-7 breast cancer cells
Experiment: Microarray gene expression analysis (Agilent whole human genome 4 x 44K; compound vs DMSO, LIMMA log2 fold change)
Assay type: cell-based
Conditions: cell cycle genes

Cn1ncc2c(N3CCOCC3)nc(-c3cccc(O)c3)nc21 [ETP-45658]
TRIAP1 log2FC (Gene 51499): -0.820 | DTL log2FC (Gene 51514): 0.044 | SIRT7 log2FC (Gene 51547): 0.404 | CINP log2FC (Gene 51550): -0.074 | GINS2 log2FC (Gene 51659): -0.721 | NUP54 log2FC (Gene 53371): 0.683 | PELO log2FC (Gene 53918): -0.595 | WNT4 log2FC (Gene 54361): -0.709 | ANLN log2FC (Gene 54443): 0.699 | FBXW5 log2FC (Gene 54461): -0.054 | FAM64A log2FC (Gene 54478): 0.090 | DDX4 log2FC (Gene 54514): -0.146 | BTG4 log2FC (Gene 54766): 0.249 | NDE1 log2FC (Gene 54820): 0.535 | NSUN2 log2FC (Gene 54888): -0.186 | TTC19 log2FC (Gene 54902): 0.753 | TXNL4B log2FC (Gene 54957): 0.617 | BANP log2FC (Gene 54971): -0.168 | AURKAIP1 log2FC (Gene 54998): -0.353 | PHIP log2FC (Gene 55023): 1.243 | USP47 log2FC (Gene 55031): 0.762 | ZWILCH log2FC (Gene 55055): 0.619 | PIWIL2 log2FC (Gene 55124): -0.029 | CEP192 log2FC (Gene 55125): 0.534 | CDCA8 log2FC (Gene 55143): -0.107 | RFWD3 log2FC (Gene 55159): -0.597 | CEP55 log2FC (Gene 55165): 1.059 | CENPQ log2FC (Gene 55166): 0.796 | RIF1 log2FC (Gene 55183): 0.443 | ARL8B log2FC (Gene 55207): 0.686 | RCBTB1 log2FC (Gene 55213): 0.799 | CCDC87 log2FC (Gene 55231): -0.125 | STEAP3 log2FC (Gene 55240): -0.569 | MNS1 log2FC (Gene 55329): 0.765 | MCM10 log2FC (Gene 55388): -0.683 | SMPD3 log2FC (Gene 55512): -0.280 | TRIM36 log2FC (Gene 55521): 0.705 | RBM38 log2FC (Gene 55544): -0.536 | PRR5 log2FC (Gene 55615): 0.335 | PRPF40A log2FC (Gene 55660): 1.175 | CEP72 log2FC (Gene 55722): 0.344 | CHFR log2FC (Gene 55743): -0.026 | NUP133 log2FC (Gene 55746): 0.409 | CCAR1 log2FC (Gene 55749): 0.836 | CDK5RAP2 log2FC (Gene 55755): 0.516 | PCID2 log2FC (Gene 55795): 0.322 | CENPN log2FC (Gene 55839): 0.469 | PPP2R2D log2FC (Gene 55844): 0.037 | HDAC8 log2FC (Gene 55869): -0.325 | PBK log2FC (Gene 55872): 0.522 | BIN3 log2FC (Gene 55909): -0.746 | ERBB2IP log2FC (Gene 55914): 1.051 | RCC2 log2FC (Gene 55920): -0.248 | KLHL9 log2FC (Gene 55958): 0.133 | TEX11 log2FC (Gene 56159): -0.066 | TDRD1 log2FC (Gene 56165): 0.246 | PARD3 log2FC (Gene 56288): 0.418 | RPRM log2FC (Gene 56475): -0.078 | CYP26B1 log2FC (Gene 56603): 0.090 | SPIRE1 log2FC (Gene 56907): 0.377 | SMARCAD1 log2FC (Gene 56916): 0.653 | PRDM9 log2FC (Gene 56979): 0.085 | KIF15 log2FC (Gene 56992): 1.353 | PDXP log2FC (Gene 57026): -1.027 | PCBP4 log2FC (Gene 57060): -0.519 | CASC5 log2FC (Gene 57082): 0.187 | PCNP log2FC (Gene 57092): 0.687 | NUP107 log2FC (Gene 57122): 0.862 | CHMP1B log2FC (Gene 57132): 0.826 | PAK7 log2FC (Gene 57144): 0.396 | CSRP2BP log2FC (Gene 57325): 0.412 | TTYH1 log2FC (Gene 57348): -0.189 | BIRC6 log2FC (Gene 57448): 0.155 | MTA3 log2FC (Gene 57504): 0.345 | HACE1 log2FC (Gene 57531): 0.593 | TAOK1 log2FC (Gene 57551): 0.386 | USP37 log2FC (Gene 57695): 0.513 | FANCM log2FC (Gene 57697): 0.486 | CCNB1IP1 log2FC (Gene 57820): 1.174 | RHOU log2FC (Gene 58480): 1.289 | OVOL2 log2FC (Gene 58495): -0.133 | AVPI1 log2FC (Gene 60370): 0.391 | RINT1 log2FC (Gene 60561): 0.804 | FAM111A log2FC (Gene 63901): 0.319 | DMRTC2 log2FC (Gene 63946): -0.047 | CLSPN log2FC (Gene 63967): 0.066 | TSPYL2 log2FC (Gene 64061): -0.073 | DPEP3 log2FC (Gene 64180): -0.246 | RFWD2 log2FC (Gene 64326): 0.063 | CENPH log2FC (Gene 64946): 0.860 | MRPL41 log2FC (Gene 64975): -0.545 | INTS3 log2FC (Gene 65123): -0.455 | PHACTR4 log2FC (Gene 65979): 0.399 | BOLL log2FC (Gene 66037): -0.038 | MIS12 log2FC (Gene 79003): -0.429 | CENPM log2FC (Gene 79019): -0.105 | NUP37 log2FC (Gene 79023): 0.431 | ZNF655 log2FC (Gene 79027): 0.893 | CENPO log2FC (Gene 79172): -0.787 | E2F8 log2FC (Gene 79733): 0.114 | FBXO31 log2FC (Gene 79791): -0.232 | CSPP1 log2FC (Gene 79848): 0.754 | NEK11 log2FC (Gene 79858): 0.568 | MAP9 log2FC (Gene 79884): 1.193 | NUP85 log2FC (Gene 79902): 0.292 | CEP76 log2FC (Gene 79959): 0.323 | CENPT log2FC (Gene 80152): -0.175 | DBF4B log2FC (Gene 80174): -0.579 | CEP290 log2FC (Gene 80184): 0.854 | CEP63 log2FC (Gene 80254): 0.741 | CDK5RAP3 log2FC (Gene 80279): -0.091 | CEP70 log2FC (Gene 80321): 0.756 | TUBB1 log2FC (Gene 81027): -0.436 | NDEL1 log2FC (Gene 81565): -0.111 | FAM83D log2FC (Gene 81610): -0.088 | CAB39L log2FC (Gene 81617): 0.106 | CCNL2 log2FC (Gene 81669): 0.230 | CABLES2 log2FC (Gene 81928): -0.937 | KIF18A log2FC (Gene 81930): 1.204 | SESN2 log2FC (Gene 83667): -0.701 | SETDB2 log2FC (Gene 83852): 1.285 | GSG2 log2FC (Gene 83903): -0.491 | RASSF4 log2FC (Gene 83937): 0.185 | MND1 log2FC (Gene 84057): 0.497 | HORMAD1 log2FC (Gene 84072): 0.519 | USP44 log2FC (Gene 84101): -0.061 | CEP78 log2FC (Gene 84131): 0.550 | GINS4 log2FC (Gene 84296): -0.398 | RAB11FIP4 log2FC (Gene 84440): 0.575 | LZTS2 log2FC (Gene 84445): 0.831 | BRSK1 log2FC (Gene 84446): -0.038 | SPIRE2 log2FC (Gene 84501): 0.454 | PARD6B log2FC (Gene 84612): 0.731 | PPP1R9B log2FC (Gene 84687): -0.425 | SPATA22 log2FC (Gene 84690): -0.013 | BEX2 log2FC (Gene 84707): 0.736 | PSRC1 log2FC (Gene 84722): 0.114 | KLHL22 log2FC (Gene 84861): 0.165 | TBRG1 log2FC (Gene 84897): 0.370 | MASTL log2FC (Gene 84930): 0.592 | LSM10 log2FC (Gene 84967): -1.152 | CCNB3 log2FC (Gene 85417): 0.077 | LRRCC1 log2FC (Gene 85444): 0.773 | DIXDC1 log2FC (Gene 85458): 0.062 | PNPT1 log2FC (Gene 87178): 0.445 | LMLN log2FC (Gene 89782): 0.783 | KLHL13 log2FC (Gene 90293): 0.112 | GADD45GIP1 log2FC (Gene 90480): -0.402 | SLFN11 log2FC (Gene 91607): -0.432 | CENPL log2FC (Gene 91687): 0.066 | CABLES1 log2FC (Gene 91768): 1.627 | SYCE1 log2FC (Gene 93426): -0.072 | ACTR8 log2FC (Gene 93973): 0.366 | TP53INP1 log2FC (Gene 94241): 0.920 | CDCA5 log2FC (Gene 113130): 0.030 | TUBGCP5 log2FC (Gene 114791): 0.520
